Reference: patent publication US20260356819A1, “OXOISOINDOLINYL-SUBSTITUTED […] DERIVATIVE AND USE THEREOF” (GLUETACS THERAPEUTICS (SHANGHAI) CO., LTD., priority 2023, published 2026)
pIC50: −log10 of the molar value.

What was measured:
[1] = target: T1, IKZF3 (Homo sapiens, UniProt Q96SW2+Q9UKT9); test: Western blot degradation of IKZF3 in hPBMCs (24 h); format: cell-based; settings: compounds at 50 nM and 500 nM
T1 construct: The supernatant was aspirated as the extracted total cell protein; endogenous in cells; host or cells: human peripheral blood mononuclear cells (hPBMCs)
Summary of the method: (§1)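 PBMC Western blot, 24 h treatment; test levels 50 nM and 500 nM. Band density ÷ internal control, normalised → % remaining; degradation (%) = 1 − remaining.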

[2] = system: MGC803 cells; test: Inhibition of proliferation of gastric cancer cells MGC803 (cell viability assay, 96 h); format: cell-based, human; settings: read-out: inhibitory activity (IC50) against tumor cells proliferation, MGC803
Procedure: (§2) The tumor cells used herein were cultured in a cell culture medium listed in table 2 at 37 °C in an incubator with 5% CO2. Prior to experimentation, all cell lines used were correctly identified by STR profiling, and tested negative for Mycoplasma contamination using a Mycoplasma detection kit through routine screenings.
The IC50 values of the compounds of the present disclosure (including the compounds in Table 1, and Examples 1-498) were determined using the CellTiter-Meiluncell Luminescent Cell Viability Assay Kit from Dalian Meilun Biotech Co., Ltd. The detailed procedure is as follows: Tumor cells were seeded in 96-well cell culture plates at the densities specified in Table 3. On the following day, the test compounds of the present disclosure were subjected to serial dilution. […] Subsequently, 0.5 μL of the test compound dilution was transferred into the 96-well plate containing the cells, with each well containing 100 μL of cell culture medium. […] Into the 96-well plate, the diluted test compounds and corresponding detection reagents were added, resulting in final test compound concentrations of 500 nM and 10 nM, respectively. The experimental procedure is described below using the diluted 2 μM test compound as an example.
0.5 μL of the aforementioned diluted compound of the present disclosure (including the compounds in Table 1, and Examples 1-498) was added to the seeded cells in 100 μL of medium, yielding a final test compound concentration of 10 nM. After the cells were treated with the compounds of the present disclosure for a specified period, the cell viability assay reagent was added to the culture medium according to the kit's instructions to determine cell viability. […] All controls were treated using the same procedure as the compounds of the present disclosure. The growth inhibition curves for the compounds of the present disclosure were plotted using Prism GraphPad software, and the IC50 values were calculated therefrom.

[3] = target: T2, WEE1 (Homo sapiens, UniProt P30291+Q96SW2); test: Western blot degradation of WEE1 in hPBMCs (24 h); format: cell-based; settings: compounds at 50 nM and 500 nM
T2 construct: The supernatant was aspirated as the extracted total cell protein; endogenous in cells; host or cells: human peripheral blood mononuclear cells (hPBMCs)
Summary of the method: as §1

[4] = target: T3, CK1α (Homo sapiens, UniProt P48729+Q96SW2); test: Western blot degradation of CK1α in hPBMCs (24 h); format: cell-based; settings: compounds at 50 nM and 500 nM
T3 construct: The supernatant was aspirated as the extracted total cell protein; endogenous in cells; host or cells: human peripheral blood mononuclear cells (hPBMCs)
Summary of the method: as §1

[5] = target: T4, IKZF2 (Homo sapiens, UniProt Q96SW2+Q9UKS7); test: Western blot degradation of IKZF2 in hPBMCs (24 h); format: cell-based; settings: compounds at 50 nM and 500 nM
T4 construct: The supernatant was aspirated as the extracted total cell protein; endogenous in cells; host or cells: human peripheral blood mononuclear cells (hPBMCs)
Summary of the method: as §1

[6] = target: T5, IKZF1 (Homo sapiens, UniProt Q13422+Q96SW2); test: Western blot degradation of IKZF1 in hPBMCs (24 h); format: cell-based; settings: compounds at 50 nM and 500 nM
T5 construct: The supernatant was aspirated as the extracted total cell protein; endogenous in cells; host or cells: human peripheral blood mononuclear cells (hPBMCs)
Summary of the method: as §1

[7] = target: T6, GSPT1 (Homo sapiens, UniProt P15170+Q96SW2); test: Western blot degradation of GSPT1 in hPBMCs (24 h); format: cell-based; settings: compounds at 50 nM and 500 nM
T6 construct: The supernatant was aspirated as the extracted total cell protein; endogenous in cells; host or cells: human peripheral blood mononuclear cells (hPBMCs)
Summary of the method: as §1

[8] = system: MM.1S cells; test: Inhibition of proliferation of multiple myeloma cells MM.1S (cell viability assay, 96 h); format: cell-based, human; settings: read-out: inhibitory activity (IC50) against tumor cells proliferation, MM.1S
[9] = system: Jurkat cells; test: Inhibition of proliferation of T lymphocytic leukemia cells Jurkat (cell viability assay, 96 h); format: cell-based, human; settings: read-out: inhibitory activity (IC50) against tumor cells proliferation, Jurkat
[10] = system: MDA-MB-231 cells; test: Inhibition of proliferation of breast cancer cells MDA-MB-231 (cell viability assay, 96 h); format: cell-based, human
Procedure: as §2
(§3) The IC50 values of the compounds of the present disclosure (including the compounds in Table 1, and Examples 1-498) were determined using the CellTiter-Meiluncell Luminescent Cell Viability Assay Kit from Dalian Meilun Biotech Co., Ltd. The detailed procedure is as follows: Tumor cells were seeded in 96-well cell culture plates at the densities specified in Table 3. On the following day, the test compounds of the present disclosure were subjected to serial dilution. […] Subsequently, 0.5 μL of the test compound dilution was transferred into the 96-well plate containing the cells, with each well containing 100 μL of cell culture medium. […]
(§4) 0.5 μL of the aforementioned diluted compound of the present disclosure (including the compounds in Table 1, and Examples 1-498) was added to the seeded cells in 100 μL of medium, yielding a final test compound concentration of 10 nM. […] The growth inhibition curves for the compounds of the present disclosure were plotted using Prism GraphPad software, and the IC50 values were calculated therefrom.

[11] = system: H2228 cells; test: Inhibition of proliferation of non-small cell lung cancer cells H2228 (cell viability assay, 96 h); format: cell-based, human
Procedure: as §2, §3, §4

[12] = system: H292 cells; test: Inhibition of proliferation of human lung cancer cells H292 (CellTiter-Meiluncell Luminescent Cell Viability Assay, 96 h); format: cell-based
Procedure: as §2, §3, §4

T6 sequence (P15170 whole entry): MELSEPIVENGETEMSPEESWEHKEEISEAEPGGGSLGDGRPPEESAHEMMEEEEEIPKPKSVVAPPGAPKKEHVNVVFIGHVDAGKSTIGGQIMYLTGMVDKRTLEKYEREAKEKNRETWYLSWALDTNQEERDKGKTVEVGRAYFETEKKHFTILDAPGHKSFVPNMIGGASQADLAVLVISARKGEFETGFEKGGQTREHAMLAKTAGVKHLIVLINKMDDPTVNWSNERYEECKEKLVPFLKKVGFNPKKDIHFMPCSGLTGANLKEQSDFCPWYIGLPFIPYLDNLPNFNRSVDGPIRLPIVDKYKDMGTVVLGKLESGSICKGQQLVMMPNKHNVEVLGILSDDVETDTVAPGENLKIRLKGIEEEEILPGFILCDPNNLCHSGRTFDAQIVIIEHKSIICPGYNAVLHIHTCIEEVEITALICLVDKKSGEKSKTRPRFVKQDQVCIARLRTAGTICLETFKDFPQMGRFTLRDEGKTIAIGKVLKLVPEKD
T6 sequence (Q96SW2 whole entry): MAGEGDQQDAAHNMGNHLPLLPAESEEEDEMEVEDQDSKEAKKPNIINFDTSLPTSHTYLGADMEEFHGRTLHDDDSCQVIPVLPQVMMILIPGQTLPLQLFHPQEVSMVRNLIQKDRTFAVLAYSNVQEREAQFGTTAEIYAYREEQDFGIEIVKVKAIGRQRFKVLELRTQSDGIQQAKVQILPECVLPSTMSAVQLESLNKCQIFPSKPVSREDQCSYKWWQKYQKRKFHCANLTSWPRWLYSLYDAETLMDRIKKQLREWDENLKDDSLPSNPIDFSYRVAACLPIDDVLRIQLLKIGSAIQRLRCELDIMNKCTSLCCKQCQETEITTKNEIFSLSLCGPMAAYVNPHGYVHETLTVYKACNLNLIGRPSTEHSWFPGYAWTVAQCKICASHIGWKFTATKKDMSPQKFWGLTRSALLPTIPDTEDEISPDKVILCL
T6 sequence (Q16531 whole entry partner): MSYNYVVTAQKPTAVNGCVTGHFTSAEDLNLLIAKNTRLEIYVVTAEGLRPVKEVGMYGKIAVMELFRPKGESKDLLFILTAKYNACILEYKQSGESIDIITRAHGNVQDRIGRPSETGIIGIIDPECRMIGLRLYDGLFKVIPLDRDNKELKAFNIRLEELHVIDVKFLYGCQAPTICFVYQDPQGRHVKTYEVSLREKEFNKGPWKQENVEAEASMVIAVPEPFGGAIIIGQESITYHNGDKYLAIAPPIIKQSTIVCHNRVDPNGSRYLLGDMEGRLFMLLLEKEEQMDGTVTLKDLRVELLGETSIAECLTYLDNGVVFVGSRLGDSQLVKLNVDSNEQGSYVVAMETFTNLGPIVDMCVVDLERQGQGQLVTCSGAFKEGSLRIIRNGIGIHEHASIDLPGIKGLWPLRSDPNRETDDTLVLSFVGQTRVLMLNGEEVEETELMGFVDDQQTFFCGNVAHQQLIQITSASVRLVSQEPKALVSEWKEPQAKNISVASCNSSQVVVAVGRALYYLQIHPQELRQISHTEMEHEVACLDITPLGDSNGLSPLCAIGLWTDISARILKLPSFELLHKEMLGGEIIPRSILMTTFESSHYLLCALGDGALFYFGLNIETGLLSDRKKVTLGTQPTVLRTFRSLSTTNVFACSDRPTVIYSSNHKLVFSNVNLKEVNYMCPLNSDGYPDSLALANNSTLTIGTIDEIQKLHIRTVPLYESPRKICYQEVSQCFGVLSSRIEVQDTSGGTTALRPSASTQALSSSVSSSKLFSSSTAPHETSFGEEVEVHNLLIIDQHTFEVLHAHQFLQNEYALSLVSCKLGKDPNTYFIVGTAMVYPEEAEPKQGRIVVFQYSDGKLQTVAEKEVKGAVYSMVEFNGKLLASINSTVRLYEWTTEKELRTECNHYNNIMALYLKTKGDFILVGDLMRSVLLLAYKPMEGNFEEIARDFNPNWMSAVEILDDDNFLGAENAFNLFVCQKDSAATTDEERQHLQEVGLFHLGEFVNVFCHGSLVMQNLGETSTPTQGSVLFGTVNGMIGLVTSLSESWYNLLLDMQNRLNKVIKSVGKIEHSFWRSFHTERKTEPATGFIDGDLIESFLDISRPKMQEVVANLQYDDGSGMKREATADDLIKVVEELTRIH
T2 sequence (P30291 whole entry): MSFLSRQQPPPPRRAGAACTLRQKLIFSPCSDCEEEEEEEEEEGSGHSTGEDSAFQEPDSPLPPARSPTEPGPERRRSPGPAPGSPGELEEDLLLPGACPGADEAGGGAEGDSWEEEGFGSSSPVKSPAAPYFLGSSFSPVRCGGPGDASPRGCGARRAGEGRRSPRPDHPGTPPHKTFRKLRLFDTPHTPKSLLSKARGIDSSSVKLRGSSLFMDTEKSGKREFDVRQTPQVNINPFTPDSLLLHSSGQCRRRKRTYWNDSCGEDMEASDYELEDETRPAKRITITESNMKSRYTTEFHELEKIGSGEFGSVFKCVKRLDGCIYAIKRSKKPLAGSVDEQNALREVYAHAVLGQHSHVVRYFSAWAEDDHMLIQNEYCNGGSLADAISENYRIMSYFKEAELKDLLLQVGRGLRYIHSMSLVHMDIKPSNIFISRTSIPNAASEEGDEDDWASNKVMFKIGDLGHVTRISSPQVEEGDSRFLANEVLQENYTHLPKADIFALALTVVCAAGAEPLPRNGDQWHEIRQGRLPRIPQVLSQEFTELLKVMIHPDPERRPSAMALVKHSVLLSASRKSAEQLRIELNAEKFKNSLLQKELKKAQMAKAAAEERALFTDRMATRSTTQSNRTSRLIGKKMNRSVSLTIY
T2 sequence (Q96SW2 whole entry): as the sequence (Q96SW2 whole entry) above
T2 sequence (Q16531 whole entry partner): as the sequence (Q16531 whole entry partner) above
T5 sequence (Q13422 whole entry): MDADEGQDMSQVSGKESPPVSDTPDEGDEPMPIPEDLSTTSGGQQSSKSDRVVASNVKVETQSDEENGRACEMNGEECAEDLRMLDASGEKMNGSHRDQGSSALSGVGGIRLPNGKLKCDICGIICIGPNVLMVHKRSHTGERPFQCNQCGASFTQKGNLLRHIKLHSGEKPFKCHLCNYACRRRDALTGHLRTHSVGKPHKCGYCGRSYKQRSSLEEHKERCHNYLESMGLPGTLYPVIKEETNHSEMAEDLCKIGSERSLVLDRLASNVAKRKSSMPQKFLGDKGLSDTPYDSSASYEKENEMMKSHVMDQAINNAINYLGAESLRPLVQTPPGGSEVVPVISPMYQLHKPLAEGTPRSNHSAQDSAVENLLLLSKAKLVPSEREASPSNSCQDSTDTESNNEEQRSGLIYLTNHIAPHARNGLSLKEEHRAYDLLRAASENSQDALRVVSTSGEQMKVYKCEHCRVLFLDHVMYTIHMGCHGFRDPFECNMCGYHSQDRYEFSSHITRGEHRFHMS
T5 sequence (Q96SW2 whole entry): as the sequence (Q96SW2 whole entry) above
T5 sequence (Q16531 whole entry partner): as the sequence (Q16531 whole entry partner) above
T4 sequence (Q9UKS7 whole entry): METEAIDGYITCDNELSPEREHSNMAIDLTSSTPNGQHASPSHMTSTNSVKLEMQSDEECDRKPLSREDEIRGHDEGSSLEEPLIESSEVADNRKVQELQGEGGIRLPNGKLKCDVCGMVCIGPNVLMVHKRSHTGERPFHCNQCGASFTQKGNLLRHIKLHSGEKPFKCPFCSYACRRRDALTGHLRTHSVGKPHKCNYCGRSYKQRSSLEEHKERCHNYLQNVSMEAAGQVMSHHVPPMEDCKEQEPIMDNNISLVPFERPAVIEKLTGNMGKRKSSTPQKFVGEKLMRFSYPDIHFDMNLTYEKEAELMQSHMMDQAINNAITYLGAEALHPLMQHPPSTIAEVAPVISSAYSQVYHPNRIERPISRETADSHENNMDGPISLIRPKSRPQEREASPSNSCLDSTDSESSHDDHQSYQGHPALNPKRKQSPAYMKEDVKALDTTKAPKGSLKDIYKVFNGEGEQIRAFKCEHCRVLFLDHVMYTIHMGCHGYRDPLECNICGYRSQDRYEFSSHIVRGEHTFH
T4 sequence (Q96SW2 whole entry): as the sequence (Q96SW2 whole entry) above
T4 sequence (Q16531 whole entry partner): as the sequence (Q16531 whole entry partner) above
T3 sequence (P48729 whole entry): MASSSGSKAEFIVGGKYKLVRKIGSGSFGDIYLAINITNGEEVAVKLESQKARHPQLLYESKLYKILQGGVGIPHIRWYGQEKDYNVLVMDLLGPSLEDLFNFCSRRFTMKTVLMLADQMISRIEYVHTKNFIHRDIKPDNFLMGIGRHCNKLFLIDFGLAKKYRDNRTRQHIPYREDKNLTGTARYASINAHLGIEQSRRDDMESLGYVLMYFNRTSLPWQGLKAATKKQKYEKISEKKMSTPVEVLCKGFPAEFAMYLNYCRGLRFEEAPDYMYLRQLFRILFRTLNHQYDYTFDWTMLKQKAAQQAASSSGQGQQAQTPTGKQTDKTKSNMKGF
T3 sequence (Q96SW2 whole entry): as the sequence (Q96SW2 whole entry) above
T3 sequence (Q16531 whole entry partner): as the sequence (Q16531 whole entry partner) above

| SMILES | IKZF3 substrate protein remaining % [1] | pIC50 [2] | WEE1 substrate protein remaining % [3] | CK1α substrate protein remaining % [4] | IKZF2 substrate protein remaining % [5] | IKZF1 substrate protein remaining % [6] | GSPT1 substrate protein remaining % [7] | pIC50 [8] | pIC50 [9] | Inhibition Rate at 10 nM (%) ([10]; MDA-MB-231, 10 nM) | Inhibition Rate at 500 nM (%) ([10]; MDA-MB-231, 500 nM) | Inhibition Rate at 10 nM (%) ([11]; H2228, 10 nM) | Inhibition Rate at 500 nM (%) ([11]; H2228, 500 nM) | Inhibition Rate at 10 nM (%) ([12]; H292, 10 nM) | Inhibition Rate at 500 nM (%) ([12]; H292, 500 nM) |
| --- | --- | --- | --- | --- | --- | --- | --- | --- | --- | --- | --- | --- | --- | --- | --- |
| Cc1cscc1C1=CCN(Cc2ccc3c(c2)CN(N2CCC(=O)NC2=O)C3=O)CC1 [GT-04872, 1-(5-((4-(4-methylthiophen-3-yl)-3,6-dihydropyridin-1(2H)-yl)methyl)-1-oxoisoindolin-2-yl)dihydropyrimidine-2,4(1H,3H)-dione] | B (80%< substrate protein remaining % ≤100%) | 6.52 to 7.00 | A (0% ≤ substrate protein remaining % ≤80%) | B (80%< substrate protein remaining % ≤100%) | B (80%< substrate protein remaining % ≤100%) | A (0% ≤ substrate protein remaining % ≤80%) | A (0% ≤ substrate protein remaining % ≤80%) | 7.30 to 8.00 | 6.52 to 7.00 | – | – | – | – | – | – |
| Cc1cc(C2=CCN(Cc3ccc4c(c3)CN(N3CCC(=O)NC3=O)C4=O)CC2)cs1 [GT-04873, 1-(5-((4-(5-methylthiophen-3-yl)-3,6-dihydropyridin-1(2H)-yl)methyl)-1-oxoisoindolin-2-yl)dihydropyrimidine-2,4(1H,3H)-dione] | A (0% ≤ substrate protein remaining % ≤80%) | 6.52 to 7.00 | A (0% ≤ substrate protein remaining % ≤80%) | B (80%< substrate protein remaining % ≤100%) | B (80%< substrate protein remaining % ≤100%) | A (0% ≤ substrate protein remaining % ≤80%) | A (0% ≤ substrate protein remaining % ≤80%) | 7.00 to 7.30 | 6.52 to 7.00 | – | – | – | – | – | – |
| O=C1CCN(N2Cc3cc(CN4CCN(C(c5ccccc5)c5ccccc5)CC4)ccc3C2=O)C(=O)N1 [GT-04889, 1-(5-((4-benzhydrylpiperazin-1-yl)methyl)-1-oxoisoindolin-2-yl)dihydropyrimidine-2,4(1H,3H)-dione] | A (0% ≤ substrate protein remaining % ≤80%) | 6.30 to 6.52 | A (0% ≤ substrate protein remaining % ≤80%) | B (80%< substrate protein remaining % ≤100%) | A (0% ≤ substrate protein remaining % ≤80%) | A (0% ≤ substrate protein remaining % ≤80%) | A (0% ≤ substrate protein remaining % ≤80%) | 6.52 to 7.00 | 6.30 to 6.52 | – | – | – | – | – | – |
| O=C1CCN(N2Cc3cc(CN4CCC(N(c5ccccc5)c5ccccc5)CC4)ccc3C2=O)C(=O)N1 [GT-04939, 1-(5-((4-(diphenylamino)piperidin-1-yl)methyl)-1-oxoisoindolin-2-yl)dihydropyrimidine-2,4(1H,3H)-dione] | A (0% ≤ substrate protein remaining % ≤80%) | 6.52 to 7.00 | A (0% ≤ substrate protein remaining % ≤80%) | A (0% ≤ substrate protein remaining % ≤80%) | A (0% ≤ substrate protein remaining % ≤80%) | A (0% ≤ substrate protein remaining % ≤80%) | A (0% ≤ substrate protein remaining % ≤80%) | 7.30 to 8.00 | 6.52 to 7.00 | – | – | – | – | – | – |
| O=C1CCN(N2Cc3cc(CN4CCC(N(c5ccccc5)c5ccccn5)CC4)ccc3C2=O)C(=O)N1 [GT-04940, 1-(1-oxo-5-((4-(phenyl(pyridin-2-yl)amino)piperidin-1-yl)methyl)isoindolin-2-yl)dihydropyrimidine-2,4(1H,3H)-dione] | A (0% ≤ substrate protein remaining % ≤80%) | 6.52 to 7.00 | A (0% ≤ substrate protein remaining % ≤80%) | A (0% ≤ substrate protein remaining % ≤80%) | A (0% ≤ substrate protein remaining % ≤80%) | A (0% ≤ substrate protein remaining % ≤80%) | A (0% ≤ substrate protein remaining % ≤80%) | 7.00 to 7.30 | 6.52 to 7.00 | – | – | – | – | – | – |
| O=C1CCN(N2Cc3cc(CN4CCC(Nc5ccccc5-c5ccc(Cl)cc5)CC4)ccc3C2=O)C(=O)N1 [GT-04943, 1-(5-((4-((4′-chloro-[1,1′-biphenyl]-2-yl)amino)piperidin-1-yl)methyl)-1-oxoisoindolin-2-yl)dihydropyrimidine-2,4(1H,3H)-dione] | A (0% ≤ substrate protein remaining % ≤80%) | 6.52 to 7.00 | A (0% ≤ substrate protein remaining % ≤80%) | B (80%< substrate protein remaining % ≤100%) | A (0% ≤ substrate protein remaining % ≤80%) | A (0% ≤ substrate protein remaining % ≤80%) | A (0% ≤ substrate protein remaining % ≤80%) | 7.30 to 8.00 | 6.52 to 7.00 | – | – | – | – | – | – |
| Nc1cccc2c1CN(C1CCC(=O)NC1=O)C2=O (stereo not drawn) [lenalidomide, reference compound] | – | – | – | – | – | – | – | – | – | f4 (15% ≤ f4 <18%) | f3 (10% ≤ f3 < 15%) | d5 (20% ≤ d5 <25%) | d4 (15% ≤ d4 <20%) | b1 (0 < b1 <1%) | b3 (5% ≤ b3 <10%) |
